From patent US4457917A, “Peptide, process for its preparation and pharmaceutical composition containing same” (Max-Planck-Gesellschaft zur Foerderung der Wissenschaften …, priority 1981, dated 1984)
Non-standard residues stand in square brackets, D forms with d. No end group written: not given here. pGlu = O=C1CC[C@@H](C(=O)O)N1

Key:
Hydra [1] = assay: Mitogen action on cell division in Hydra; type: in vivo
Hydra [2] = assay: Head-specific determination in Hydra (interstitial parent cell determined to the nerve cell); type: in vivo
embryonal brain cells = assay: Growth-stimulating action on embryonal brain cells; type: cell-based; conditions: mammals
[3] = Blood pressure effect upon intraventricular administration; type: in vivo; conditions: mammals

In the case of “[pGlu]PPGGSKVILF [peptide of the invention]”, the “mitogen action, cell division of all types of cells” value (Hydra [1]) was “acts as a mitogen”, the “concentration at which the effect occurs (mitogen)” value (Hydra [1]; order of magnitude) was ~10^-10 M and the head-specific determination (Hydra [2]) was “responsible for head-specific determination”. The “concentration at which the effect occurs (head-specific determination)” value (Hydra [2]; order of magnitude) was ~10^-10 M, the “action on growth of embryonal brain cells” value (embryonal brain cells) was “growth-stimulating action” and the “effect on blood pressure” value [3] was “hypertensive (pressor) effect”.
